Measured values published in patent publication US20230278972A1, “SUBSTITUTED HALOALKYL SULFONANILIDE HERBICIDES” (FMC Corporation, priority 2020, published 2023).

Assays:
Assay type in all cases: in vivo
[1] = tested on: blackgrass (Alopecurus myosuroides); assay: Test A1 preemergence, blackgrass
Method in brief: (§1)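 Plants grown in pots of loam/sand mix; preemergence = soil-directed spray on seeded pots, postemergence = spray at 1–2 leaves, height 2–10 cm; test chemicals formulated in non-phytotoxic solvent with surfactant.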

corn (Zea mays) = assay: Test A1 preemergence, corn
Method in brief: (§2)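 Test compounds were formulated in a non-phytotoxic solvent mixture containing a surfactant. For preemergence, seeds sown in a loam soil–sand blend received a directed soil spray. For postemergence, potted plants in the same soil, 2 to 10 cm tall at the one- to two-leaf stage, were sprayed.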

[2] = tested on: goosegrass (Eleusine indica); assay: Test A1 preemergence, goosegrass
Method in brief: as §1

[3] = tested on: ragweed (common ragweed, Ambrosia artemisiifolia); assay: Test A1 preemergence, ragweed
Method in brief: as §1

[4] = tested on: wheat (Triticum aestivum); assay: Test A1 preemergence, wheat
Method in brief: as §1

[5] = tested on: goosegrass (Eleusine indica); assay: Test A1 postemergence, goosegrass; conditions: Postemergence
Method in brief: (§3)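 Both timings started from seed in a loam-sand blend. Preemergence pots got a directed soil application immediately; postemergence pots were sprayed when seedlings had one or two leaves and stood 2–10 cm. Each compound was prepared in a non-phytotoxic solvent plus surfactant.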

[6] = tested on: Oat, Wild (wild oat, Avena fatua); assay: Test A1 postemergence, Oat, Wild; conditions: Postemergence
Method in brief: as §2

[7] = tested on: Pigweed, Palmer (palmer amaranth, palmer pigweed, Amaranthus palmeri); assay: Test A1 postemergence, Pigweed, Palmer; conditions: Postemergence
Method in brief: as §2

[8] = tested on: ragweed (common ragweed, Ambrosia artemisiifolia); assay: Test A1 postemergence, ragweed; conditions: Postemergence
Method in brief: as §2

[9] = tested on: horseweed (Erigeron canadensis); assay: Test A1 postemergence, horseweed; conditions: Postemergence
Method in brief: as §3

[10] = 31 g ai/ha, 0 to 100 scale (0 no effect, 100 complete control)
[11] = 125 g ai/ha, 0 to 100 scale, 0 no effect, 100 complete control
[12] = 31 g ai/ha, 0 to 100 scale (0 no effect, 100 complete control), 10 days

| Compound | Plant response rating, Blackgrass [1, 10] | Plant response rating, Blackgrass [1, 11] | Plant response rating, Corn (corn (Zea mays); [10]) | Plant response rating, Corn (corn (Zea mays); [11]) | Plant response rating, Goosegrass [2, 10] | Plant response rating, Goosegrass [2, 11] | Plant response rating, Ragweed [3, 10] | Plant response rating, Ragweed [3, 11] | Plant response rating, Wheat [4, 10] | Plant response rating, Wheat [4, 11] | Plant response rating, Goosegrass [5, 12] | Plant response rating, Goosegrass ([5]; 125 g ai/ha, 0 to 100 scale) | Plant response rating, Oat, Wild [6, 12] | Plant response rating, Oat, Wild ([6]; 125 g ai/ha, 0 to 100 scale) | Plant response rating, Pigweed, Palmer [7, 12] | Plant response rating, Pigweed, Palmer ([7]; 125 g ai/ha, 0 to 100 scale) | Plant response rating, Ragweed [8, 12] | Plant response rating, Ragweed ([8]; 125 g ai/ha, 0 to 100 scale) | Plant response rating, Horseweed [9, 12] | Plant response rating, Horseweed ([9]; 125 g ai/ha, 0 to 100 scale) |
| --- | --- | --- | --- | --- | --- | --- | --- | --- | --- | --- | --- | --- | --- | --- | --- | --- | --- | --- | --- | --- |
| Cc1cc(F)c(NS(=O)(=O)C(F)(F)F)cc1C1=NOC2(CCCC2)C1 [Compound 303] | 0 | 40 | 0 | 90 | 50 | 100 | 0 | 0 | 30 | 90 | 0 | 70 | 0 | 20 | 0 | 20 | 30 | 80 | 0 | 70 |
| COc1cc(C)c(C2=NOC3(CCCC3)C2)cc1NS(=O)(=O)C(F)(F)F [Compound 304] | 0 | 40 | 0 | 0 | 30 | 90 | 0 | 50 | 0 | 20 | 0 | 0 | 0 | 0 | 0 | 0 | 0 | 30 | 0 | 0 |
| Cc1cc(C(F)(F)F)c(C2=NOC3CCCC23)cc1NS(=O)(=O)C(F)(F)F (stereo not drawn) [Compound 306] | 0 | 0 | 0 | 0 | 50 | 100 | 0 | 10 | 0 | 0 | 0 | 80 | 0 | 20 | 0 | 40 | 0 | 70 | 0 | 40 |
| Cc1cc(Br)c(NS(=O)(=O)C(F)(F)F)cc1C1=NOC2(CCCC2)C1 [Compound 309] | 30 | 60 | 0 | 0 | 50 | 100 | 0 | 20 | 0 | 60 | 0 | 30 | 0 | 20 | 0 | 20 | 0 | 50 | 10 | 20 |
| Cc1cc(F)c(C2=NOC3CCCC23)cc1NS(=O)(=O)C(F)(F)F (stereo not drawn) [Compound 310] | 0 | 0 | 0 | 0 | 0 | 0 | 0 | 20 | 0 | 0 | 0 | 0 | 0 | 10 | 0 | 0 | 0 | 30 | 10 | 30 |
| COc1cc(C)c(NS(=O)(=O)C(F)(F)F)cc1C1=NOC2CCCC12 (stereo not drawn) [Compound 312] | 0 | 0 | 0 | 10 | 0 | 50 | 0 | 30 | 0 | 0 | 0 | 0 | 0 | 20 | 0 | 0 | 0 | 40 | 0 | 20 |
| Cc1cc(C2CC2)c(NS(=O)(=O)C(F)(F)F)cc1C1=NOC2(CCCC2)C1 [Compound 313] | 0 | 0 | 0 | 0 | 0 | 20 | 0 | 0 | 0 | 0 | 0 | 0 | 0 | 0 | 0 | 10 | 0 | 0 | 0 | 0 |
| Cc1cc(C)c(N(COC(=O)OC(C)C)S(=O)(=O)C(F)(F)F)cc1C1=NOC2CCCC12 (stereo not drawn) [Compound 314] | 0 | 20 | 10 | 40 | 80 | 90 | 0 | 60 | 0 | 50 | 60 | 80 | 0 | 10 | 10 | 60 | 0 | 70 | 0 | 50 |
| Cc1cc(C)c(N(COC(=O)OC(C)(C)C)S(=O)(=O)C(F)(F)F)cc1C1=NOC2CCCC12 (stereo not drawn) [Compound 316] | 0 | 0 | 0 | 0 | 40 | 90 | 0 | 20 | 0 | 0 | 0 | 90 | 0 | 10 | 30 | 70 | 0 | 50 | 30 | 40 |
